# Reference: ChEMBL document CHEMBL1201862, “PubChem BioAssay data set” (2004)
#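 Grown in 96-well plates, cells were treated for 48 hours with each compound at five concentrations. Insufficient inhibition: endpoint recorded as highest concentration tested. Abbreviation: GI50, concentration required for 50% inhibition of growth.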 Calls of active or inactive are those of the source. No stated cut-off is given here; in the data, active = GI50 up to about 1.1 µM and inactive = higher. Where a SMILES comes first, the peptide text is derived from it. The star is where a group is joined. Boc = CC(C)(C)OC(=O)*
# How the values were obtained:
# Experiment in all cases: NCI-60 cell line screen, 48 h
# [1] = test system: A549
# [2] = test system: ACHN
# [3] = test system: CCRF-CEM
# [4] = test system: EKVX
# [5] = test system: HCT-15
# [6] = test system: HL-60
# [7] = test system: HT-29
# [8] = test system: IGROV-1
# [9] = test system: LOX IMVI
# [10] = test system: M14
# [11] = test system: MDA-MB-435
# [12] = test system: MDA-N
# [13] = test system: NCI-H522
# [14] = test system: OVCAR-8
# [15] = test system: SF-268
# [16] = test system: SNB-19
# [17] = test system: UO-31
# [18] = test system: Malme-3M
SMILES,GI50 [1],GI50 [2],GI50 [3],GI50 [4],GI50 [5],GI50 [6],GI50 [7],GI50 [8],GI50 [9],GI50 [10],GI50 [11],GI50 [12],GI50 [13],GI50 [14],GI50 [15],GI50 [16],GI50 [17],GI50 [18]
COc1cc(C2SCC(=O)N2c2cccc(Cl)c2)cc(OC)c1OC (configuration not stated),> 100 µM (inactive),> 100 µM (inactive),27.7 µM (inactive),76.9 µM (inactive),72.3 µM,35.3 µM (inactive),> 100 µM (inactive),65.9 µM (inactive),70.1 µM (inactive),84.9 µM (inactive),29.5 µM (inactive),17.2 µM (inactive),21.2 µM (inactive),> 100 µM (inactive),> 100 µM (inactive),11.4 µM (inactive),58.2 µM (inactive),
c1csc(-c2ccsc2-c2cccs2)c1,19.2 µM (inactive),> 100 µM (inactive),76.9 µM (inactive),> 100 µM (inactive),31 µM,30.5 µM (inactive),> 100 µM (inactive),> 100 µM (inactive),98.6 µM (inactive),59.2 µM (inactive),24.4 µM (inactive),35.8 µM (inactive),31.5 µM (inactive),> 100 µM (inactive),> 100 µM (inactive),,39.5 µM (inactive),
CC(C)[Si](OCC/C=C/C1CCC(=O)C1C(O)C1CCCCC1)(C(C)C)C(C)C (configuration not stated),13.8 µM (inactive),14.8 µM (inactive),19.5 µM (inactive),15.5 µM (inactive),16.3 µM,,13.2 µM (inactive),15.1 µM (inactive),17.1 µM (inactive),17.2 µM (inactive),17.9 µM (inactive),19.2 µM (inactive),12 µM (inactive),15.2 µM (inactive),7.13 µM (inactive),17.7 µM (inactive),16.6 µM (inactive),14.8 µM (inactive)
OCC(O)C(O)C(C=NNc1ncnc2ccc(Br)cc12)=NNc1ncnc2ccc(Br)cc12 (configuration not stated),6.3 µM (inactive),1.85 µM (inactive),,0.581 µM (active),,0.325 µM (active),0.662 µM (active),1.45 µM (inactive),0.991 µM (active),3.48 µM (inactive),4.79 µM (inactive),5.06 µM (inactive),0.404 µM (active),1.72 µM (inactive),1.16 µM (inactive),6.04 µM (inactive),9.71 µM (inactive),1.84 µM (inactive)
CCOC(=O)CCN1C(=O)C(=O)N(c2ccc(OC)cc2)C1=S,> 100 µM (inactive),> 100 µM (inactive),> 100 µM (inactive),> 100 µM (inactive),> 100 µM,> 100 µM (inactive),> 100 µM (inactive),> 100 µM (inactive),> 100 µM (inactive),,> 100 µM (inactive),97.5 µM (inactive),14.8 µM (inactive),> 100 µM (inactive),> 100 µM (inactive),> 100 µM (inactive),56.5 µM (inactive),> 100 µM (inactive)
CC(C)(C)OC(=O)NC(Cc1ccc(OCc2ccccc2)cn1)C(N)=O (configuration not stated),> 100 µM (inactive),> 100 µM (inactive),> 100 µM (inactive),> 100 µM (inactive),54.7 µM,> 100 µM (inactive),> 100 µM (inactive),> 100 µM (inactive),> 100 µM (inactive),,> 100 µM (inactive),68.5 µM (inactive),80 µM (inactive),> 100 µM (inactive),> 100 µM (inactive),> 100 µM (inactive),82.6 µM (inactive),> 100 µM (inactive)
COC(=O)C(Cc1c[nH]c2ccccc12)NC(=O)C(Cc1c[nH]c2ccccc12)NC(=O)C(Cc1c[nH]c2ccccc12)NC(=O)C(Cc1c[nH]c2ccccc12)NC(=O)C(Cc1c[nH]c2ccccc12)NC(=O)C(Cc1c[nH]c2ccccc12)NC(=O)C(Cc1c[nH]c2ccccc12)NC(=O)OC(C)(C)C (configuration not stated) (Boc-WWWWWWW-OMe; configuration not given here),31.9 µM (inactive),> 100 µM (inactive),92.7 µM (inactive),,> 100 µM,41.7 µM (inactive),> 100 µM (inactive),> 100 µM (inactive),84.9 µM (inactive),21.7 µM (inactive),> 100 µM (inactive),63.7 µM (inactive),54.6 µM (inactive),> 100 µM (inactive),> 100 µM (inactive),47.8 µM (inactive),44.9 µM (inactive),34.5 µM (inactive)
Cc1ccc(C(=O)c2[nH]c(NCc3ccccc3)c(C(=S)Nc3ccccc3)c2N)cc1,9.2 µM (inactive),11.4 µM (inactive),5.16 µM (inactive),13.6 µM (inactive),2.14 µM,16.3 µM (inactive),3.24 µM (inactive),7.35 µM (inactive),2.01 µM (inactive),1.95 µM (inactive),3.28 µM (inactive),3.51 µM (inactive),2.21 µM (inactive),12.1 µM (inactive),12.9 µM (inactive),14.7 µM (inactive),5.32 µM (inactive),
COC(=O)[C@H](COC(C)(C)C)NC(=O)N[C@H](C)c1ccccc1,> 100 µM (inactive),> 100 µM (inactive),> 100 µM (inactive),> 100 µM (inactive),> 100 µM,> 100 µM (inactive),> 100 µM (inactive),> 100 µM (inactive),> 100 µM (inactive),> 100 µM (inactive),> 100 µM (inactive),> 100 µM (inactive),> 100 µM (inactive),> 100 µM (inactive),> 100 µM (inactive),> 100 µM (inactive),> 100 µM (inactive),
CN(C(=O)C1=CCC2(CC1)OCCO2)c1ccccc1I,> 100 µM (inactive),> 100 µM (inactive),> 100 µM (inactive),> 100 µM (inactive),> 100 µM,96.6 µM (inactive),> 100 µM (inactive),> 100 µM (inactive),> 100 µM (inactive),> 100 µM (inactive),> 100 µM (inactive),> 100 µM (inactive),> 100 µM (inactive),> 100 µM (inactive),,> 100 µM (inactive),> 100 µM (inactive),
C[C@@H](Oc1ccc(Oc2cnc3ccc(Cl)cc3n2)cc1)C(=O)O [R(+)XK469],55.5 µM (inactive),87.9 µM (inactive),97.3 µM (inactive),,> 100 µM,37.1 µM (inactive),> 100 µM (inactive),83 µM (inactive),> 100 µM (inactive),> 100 µM (inactive),> 100 µM (inactive),> 100 µM (inactive),19.1 µM (inactive),> 100 µM (inactive),> 100 µM (inactive),> 100 µM (inactive),> 100 µM (inactive),> 100 µM (inactive)
Oc1ccc(Cl)cc1-c1cc(-c2ccccc2)nc(NCN2CCCCC2)n1,> 100 µM (inactive),24.2 µM (inactive),,> 100 µM (inactive),5.02 µM,> 100 µM (inactive),> 100 µM (inactive),> 100 µM (inactive),> 100 µM (inactive),> 100 µM (inactive),> 100 µM (inactive),> 100 µM (inactive),> 100 µM (inactive),> 100 µM (inactive),7.14 µM (inactive),> 100 µM (inactive),> 100 µM (inactive),> 100 µM (inactive)
C[N+]1(C)CCc2cc(O)c(O)cc2C1Cc1ccc(O)c(O)c1 (configuration not stated),> 100 µM (inactive),35.3 µM (inactive),,> 100 µM (inactive),36 µM,18.3 µM (inactive),34.8 µM (inactive),28 µM (inactive),27.7 µM (inactive),92.7 µM (inactive),20.2 µM (inactive),32.2 µM (inactive),22.5 µM (inactive),35.2 µM (inactive),39.6 µM (inactive),> 100 µM (inactive),92 µM (inactive),32.1 µM (inactive)
N=C(N)c1ccc(C(NC(=O)CNS(=O)(=O)c2ccc3ccccc3c2)P(=O)(Oc2ccccc2)Oc2ccccc2)cc1 (configuration not stated),54.1 µM (inactive),> 100 µM (inactive),29.8 µM (inactive),,48.5 µM,14.2 µM (inactive),98.6 µM (inactive),31.8 µM (inactive),28.1 µM (inactive),45.2 µM (inactive),35.6 µM (inactive),47.6 µM (inactive),41.2 µM (inactive),> 100 µM (inactive),29.8 µM (inactive),47 µM (inactive),40.3 µM (inactive),68.1 µM (inactive)
Cc1cccc2c1NC(=S)[C@@H]1CCCN1C2=O,> 100 µM (inactive),> 100 µM (inactive),> 100 µM (inactive),> 100 µM (inactive),> 100 µM,,> 100 µM (inactive),> 100 µM (inactive),> 100 µM (inactive),> 100 µM (inactive),> 100 µM (inactive),> 100 µM (inactive),> 100 µM (inactive),> 100 µM (inactive),> 100 µM (inactive),> 100 µM (inactive),> 100 µM (inactive),> 100 µM (inactive)
Cn1c(=O)c2[nH]c(N=O)nc2n(C)c1=O,> 100 µM (inactive),,,> 100 µM (inactive),> 100 µM,> 100 µM (inactive),> 100 µM (inactive),> 100 µM (inactive),> 100 µM (inactive),> 100 µM (inactive),> 100 µM (inactive),> 100 µM (inactive),> 100 µM (inactive),> 100 µM (inactive),> 100 µM (inactive),,> 100 µM (inactive),> 100 µM (inactive)
